Experimental data taken from ChEMBL document CHEMBL3352654, “Synthesis, biological evaluation and SAR analysis of O-alkylated analogs of quercetin for anticancer” (Bioorg Med Chem Lett, 2014).

Key:
Type in all cases: functional, cell-based
[1] = tested on: A549; experiment: Anticancer activity against human A549 cells by HTS assay
[2] = tested on: NCI-H157; experiment: Anticancer activity against human NCI-H157 cells by HTS assay
[3] = Anticancer activity against human H460 cells by HTS assay; conditions: NCI-H460
[4] = tested on: NCI-H1792; experiment: Anticancer activity against human NCI-H1792 cells by HTS assay
[5] = Anticancer activity against human NCI-H1944 cells by HTS assay
[6] = Anticancer activity against human […] cells by HTS assay
[7] = tested on: NCI-H522; experiment: Anticancer activity against human NCI-H522 cells by HTS assay
[8] = tested on: HOP-62; experiment: Anticancer activity against human HOP62 cells by HTS assay
[9] = Anticancer activity against human H1299 cells by HTS assay; conditions: NCI-H1299
[10] = Anticancer activity against human 292G cells by HTS assay
[11] = Anticancer activity against human Calu1 cells by HTS assay; conditions: Calu-1
[12] = Anticancer activity against human M4E cells by HTS assay
[13] = Anticancer activity against human LOXIMVI cells by HTS assay; conditions: LOX IMVI
[14] = tested on: M14; experiment: Anticancer activity against human M14 cells by HTS assay
[15] = Anticancer activity against human SKBR cells by HTS assay
[16] = tested on: HeLa; experiment: Anticancer activity against human HeLa cells by HTS assay

Row | SMILES | IC50 [1] [µM] | IC50 [2] [µM] | IC50 [3] [µM] | IC50 [4] [µM] | IC50 [5] [µM] | IC50 [6] [µM] | IC50 [7] [µM] | IC50 [8] [µM] | IC50 [9] [µM] | IC50 [10] [µM] | IC50 [11] [µM] | IC50 [12] [µM] | IC50 [13] [µM] | IC50 [14] [µM] | IC50 [15] [µM] | IC50 [16] [µM]
1 | CCOc1c(-c2ccc(O)c(O)c2)oc2cc(O)cc(O)c2c1=O | > 50 | > 50 | > 50 | > 50 | 0.39 | > 50 | > 50 | > 50 | > 50 | > 50 | > 50 | > 50 | > 50 | > 50 | > 50 | > 50
2 | CCCOc1c(-c2ccc(O)c(O)c2)oc2cc(O)cc(O)c2c1=O | 0.79 | 0.8 | 1.69 | 3.13 | 0.91 | 3.02 | 1.4 | 2.44 | 6.03 | 2.11 | 7.08 | 1.9 | 2.38 | 2.26 | 0.45 | 0.57
3 | COc1cc(O)c2c(=O)c(OC)c(-c3ccc(O)c(O)c3)oc2c1 | 5.4 | 13 | 7.02 | 19.7 | 0.46 | > 50 | > 50 | 13.2 | 15.6 | 24 | 39.6 | 21.3 | 24.1 | 21.7 | 5.28 | 11.1
4 | CCCCOc1cc(O)c2c(=O)c(OCCCC)c(-c3ccc(OCCCC)c(OCCCC)c3)oc2c1 | 48.4 | > 50 | > 50 | > 50 | > 50 | > 50 | > 50 | > 50 | > 50 | > 50 | > 50 | > 50 | > 50 | > 50 | > 50 | > 50
5 | CCCOc1cc(O)c2c(=O)c(O)c(-c3ccc(OCCC)c(O)c3)oc2c1 | 4.02 | 0.84 | 1.14 | 3.63 | 4.42 | 5.63 | 8.14 | 3.28 | 4.84 | 5.31 | 9.39 | 5.77 | 3.68 | 7.61 | 4.72 | 5.18
6 | CCOc1cc(O)c2c(=O)c(OCC)c(-c3ccc(O)c(O)c3)oc2c1 | 1.19 | 8.09 | 5.25 | 2.51 | 10.1 | 29.1 | > 50 | 10.6 | 12.8 | 17.2 | 37.4 | 20.4 | 15.2 | 20.3 | 6.26 | 0.91
7 | COc1cc(O)c2c(=O)c(OC)c(-c3ccc(OC)c(OC)c3)oc2c1 [RETUSIN] | > 50 | > 50 | > 50 | > 50 | > 50 | > 50 | > 50 | > 50 | 10.5 | > 50 | 6.53 | > 50 | 0.39 | 0.38 | > 50 | 46.4
8 | COc1c(-c2ccc(O)c(O)c2)oc2cc(O)cc(O)c2c1=O [3-O-METHYLQUERCETIN] | 8.14 | 18.7 | 9.91 | 24.1 | 23.6 | > 50 | > 50 | 35.5 | 46.8 | 49.5 | > 50 | 38.6 | > 50 | > 50 | 13.9 | 6.09
9 | CCCOc1cc(O)c2c(=O)c(OCCC)c(-c3ccc(O)c(O)c3)oc2c1 | 26.2 | 40.9 | 31.1 | 30.6 | > 50 | > 50 | > 50 | 47.2 | > 50 | > 50 | 31.9 | > 50 | > 50 | > 50 | 34.5 | 47
10 | CCCOc1cc(O)c2c(=O)c(OCCC)c(-c3ccc(OCCC)c(OCCC)c3)oc2c1 | 47.9 | > 50 | > 50 | > 50 | > 50 | > 50 | > 50 | > 50 | > 50 | > 50 | > 50 | > 50 | > 50 | > 50 | > 50 | > 50
